Experimental data reported in publication PMC5785531, “Pharmacokinetic parameters explain the therapeutic activity of antimicrobial agents in a silkworm infection model” (Scientific Reports, 2018).
Values after ≈ are worked out from the molar mass of the structure shown.

Columns and labels:
[1] = test system: S. aureus MSSA1; test: Silkworm systemic infection model, therapeutic activity (ED50); type: in vivo, Staphylococcus aureus; conditions: for ED50: Staphylococcus aureus, silkworms infected with S. aureus MSSA1 (Fig. 2), read-out: ED50
From the text: We synthesized 50 compounds (Fig. 2, Supplementary Table 1) using the Steglich esterification scheme[31] in the presence of a […], 1-ethyl-3-(3-dimethylaminopropyl)-carbodiimide hydrochloride (Fig. 1b). Antimicrobial activities of the compounds were examined by determining the MIC against S. aureus MRSA4 in vitro; therapeutic activities were examined using a systemic infection model of silkworms infected with S. aureus MSSA1.
A total of 108,373 compounds from the chemical library of the Drug Discovery Initiative at the University of Tokyo were screened for antibacterial activity against S. aureus strain MRSA4 as previously reported. Those compounds that inhibited the growth of MRSA4 at 100 µM were further evaluated for their therapeutic effects in silkworms infected with S. aureus strain MSSA1 according to previously reported studies[17],[21].

[2] = test system: S. aureus MRSA4; test: MIC against S. aureus MRSA4 in vitro (broth dilution); type: cell-based; conditions: Staphylococcus aureus; S. aureus MRSA4 in vitro; SAR series (Fig. 2)
From the text: We synthesized 50 compounds (Fig. 2, Supplementary Table 1) using the Steglich esterification scheme[31] in the presence of a […], 1-ethyl-3-(3-dimethylaminopropyl)-carbodiimide hydrochloride (Fig. 1b). Antimicrobial activities of the compounds were examined by determining the MIC against S. aureus MRSA4 in vitro; therapeutic activities were examined using a systemic infection model of silkworms infected with S. aureus MSSA1. […]
Antimicrobial activity was assessed by determining the MIC by broth dilution assay according to our previous reports[21],[35],[36] as per the Clinical and Laboratory Standards Institute[37]. Briefly, serial dilutions of compound 5, compound 7, and positive controls were prepared in cation-adjusted Mueller-Hinton Broth (MHB, Difco, Franklin Lakes, NJ, USA), 100 µl of which was dispensed into each well of a round-bottomed 96-well plate. The final concentrations in the well ranged from 128 µg/ml to 0.0625 µg/ml. Bacteria were grown at 37 °C overnight on either Luria Bertani (tryptone 10 g/l, yeast extract 5 g/l, NaCl 10 g/l) or Tryptic Soy Broth (TSB, Difco) agar plates or sheep blood agar plates (Eiken Chemical Co. Ltd., Tokyo, Japan). Bacterial inoculum was prepared by direct suspension of the colonies in 0.9% saline, and adjusted to obtain a turbidity equivalent to a 0.5 McFarland standard using a spectrophotometer UV-1280 (Shimadzu Corp., Kyoto, Japan). The suspension was then diluted 1:20 in cation-adjusted MHB (Difco), and 10 µl of it was inoculated into each well of previously prepared 96-well plates containing compounds to obtain approximately 5 × 10^4 colony forming units/well and incubated at 37 °C for 20 h. […] Vancomycin (Wako Pure Chemicals) or norfloxacin (Sigma Aldrich, St Louis, MO, USA) were used as positive controls. Each plate contained a growth control well and a vehicle control well. The MIC was determined as the minimum concentration that inhibited the growth of the bacteria.

MIC [2] [µg/mL]	Compound	survival of the S. aureus-infected silkworms ([1]; S. aureus-infected silkworms)	ED50 [1] [mg/kg]
1.6 (≈ 4.62 µM)	CC(OC(=O)c1ccc([N+](=O)[O-])s1)c1ccc(Cl)cc1Cl (centres unmarked) [compound 40]	–	> 160
1.6 (≈ 4.36 µM)	O=C(OCc1c(Cl)cc(Cl)cc1Cl)c1ccc([N+](=O)[O-])s1 [compound 41]	–	32
3.1 (≈ 9.33 µM)	O=C(OCc1c(Cl)cccc1Cl)c1ccc([N+](=O)[O-])s1 [compound 42]	–	> 180
3.1 (≈ 9.33 µM)	O=C(OCc1cc(Cl)ccc1Cl)c1ccc([N+](=O)[O-])s1 [compound 43]	–	> 180
6.3 (≈ 20 µM)	O=C(OCc1c(F)cccc1Cl)c1ccc([N+](=O)[O-])s1 [compound 44]	–	> 180
1.6 (≈ 4.85 µM)	Cc1ccc(Cl)c(COC(=O)c2ccc([N+](=O)[O-])s2)c1F [compound 45]	–	82
3.1 (≈ 10.4 µM)	O=C(OCc1cc(F)cc(F)c1)c1ccc([N+](=O)[O-])s1 [compound 46]	–	81
3.1 (≈ 11.2 µM)	Cc1ccc(COC(=O)c2ccc([N+](=O)[O-])s2)cc1 [compound 47]	–	33
3.1 (≈ 10.4 µM)	O=C(OCc1ccc(Cl)cc1)c1ccc([N+](=O)[O-])s1 [compound 48]	–	58
> 400	COc1cc(COC(=O)c2ccc([N+](=O)[O-])s2)cc(OC)c1 [compound 49]	–	–
3.1 (≈ 9.07 µM)	O=C(OCc1cc2c(cc1Cl)OCO2)c1ccc([N+](=O)[O-])s1 [compound 50]	–	> 240
> 400	CS(=O)(=O)c1ccc(COC(=O)c2ccc([N+](=O)[O-])s2)cc1 [compound 51]	–	–
25 (≈ 75.5 µM)	O=C(NCc1cc(Cl)cc(Cl)c1)c1ccc([N+](=O)[O-])s1 [compound 52]	–	> 190
6.3 (≈ 21.6 µM)	Cc1cc(C)cc(COC(=O)c2ccc([N+](=O)[O-])s2)c1 [compound 53]	–	> 210
6.3 (≈ 20.4 µM)	CSc1ccc(COC(=O)c2ccc([N+](=O)[O-])s2)cc1 [compound 54]	–	43
25 (≈ 81.6 µM)	CN(C)c1cccc(COC(=O)c2ccc([N+](=O)[O-])s2)c1 [compound 55]	–	–
6.3 (≈ 18.1 µM)	O=C(OCc1ccc(OC(F)(F)F)cc1)c1ccc([N+](=O)[O-])s1 [compound 57]	–	–

Second part, the molecule before the results:

Compound	MIC [2] [µg/mL]	survival of the S. aureus-infected silkworms ([1]; S. aureus-infected silkworms)	ED50 [1] [mg/kg]
O=C(OCc1cc(Cl)cc(Cl)c1)c1ccc([N+](=O)[O-])o1 [compound 1]	12.5 (≈ 39.5 µM)	slightly prolonged the survival	> 95
O=C(OCc1cc(Cl)cc(Cl)c1)c1ccco1 [compound 2]	> 200	–	–
O=C(OCc1cccc(Cl)c1)c1ccc([N+](=O)[O-])o1 [compound 3]	12.5 (≈ 44.4 µM)	–	> 87
O=C(OCc1ccccc1)c1ccc([N+](=O)[O-])o1 [compound 4]	12.5 (≈ 50.6 µM)	–	> 95
O=C(OCc1cccc(Cl)c1)c1ccc([N+](=O)[O-])s1 [compound 6]	0.5 (≈ 1.68 µM)	–	65
O=C(OCc1ccc2ccccc2c1)c1ccc([N+](=O)[O-])o1 [compound 8]	> 200	–	> 100
O=C(OCc1ccc2ccccc2c1)c1ccc([N+](=O)[O-])s1 [compound 9]	1.6 (≈ 5.11 µM)	–	> 105
O=C(NCc1cccc(Cl)c1)c1ccc([N+](=O)[O-])o1 [compound 10]	3.1 (≈ 11 µM)	–	> 105
O=C(NCc1cccc(Cl)c1)c1ccc([N+](=O)[O-])s1 [compound 11]	6.3 (≈ 21.2 µM)	–	> 170
CN(Cc1ccccc1)C(=O)c1ccc([N+](=O)[O-])s1 [compound 14]	50 (≈ 181 µM)	–	> 210
O=C(COc1cc(Cl)cc(Cl)c1)c1ccc([N+](=O)[O-])o1 [compound 15]	50 (≈ 158 µM)	–	> 105
O=C(COc1cc(Cl)cc(Cl)c1)c1ccc([N+](=O)[O-])s1 [compound 16]	50 (≈ 151 µM)	–	> 220
O=C(OCc1cccc(Br)c1)c1ccc([N+](=O)[O-])o1 [compound 17]	12.5 (≈ 38.3 µM)	–	> 220
O=C(OCc1cccc(Br)c1)c1ccc([N+](=O)[O-])s1 [compound 18]	1.6 (≈ 4.68 µM)	–	53
O=C(OCc1cccc(F)c1)c1ccc([N+](=O)[O-])s1 [compound 19]	0.4 (≈ 1.42 µM)	–	> 87
O=C(OCc1cc(F)cc(Cl)c1)c1ccc([N+](=O)[O-])s1 [compound 20]	0.4 (≈ 1.27 µM)	–	17
O=C(OCc1cc(Br)cc(Br)c1)c1ccc([N+](=O)[O-])s1 [compound 21]	6.3 (≈ 15 µM)	–	> 100
O=C(OCc1c(Br)c(Br)c(Br)c(Br)c1Br)c1ccc([N+](=O)[O-])s1 [compound 22]	> 200	–	–
O=Cc1ccc(C(=O)OCc2cc(Cl)cc(Cl)c2)s1 [compound 23]	25 (≈ 79.3 µM)	–	> 100
O=Cc1ccc(C(=O)OCc2cc(Br)cc(Br)c2)s1 [compound 24]	25 (≈ 61.9 µM)	–	> 100
O=Cc1ccc(C(=O)OCc2cc(F)cc(Cl)c2)s1 [compound 25]	50 (≈ 167 µM)	–	> 100
O=C(OCc1cc(Cl)cc(Cl)c1)c1ccc(Cl)s1 [compound 26]	> 200	–	–
O=C(OCc1cc(Cl)cc(Cl)c1)c1ccc(Br)s1 [compound 27]	> 200	–	–
O=C(OCc1cc(Cl)cc(Cl)c1)c1cc(Br)c(Br)s1 [compound 28]	> 200	–	> 100
O=C(OCc1cc(Cl)cc(Cl)c1)c1cc([N+](=O)[O-])n[nH]1 [compound 30]	1.6 (≈ 5.06 µM)	–	> 210
Cc1ccc(C(=O)OCc2cc(Cl)cc(Cl)c2)s1 [compound 31]	> 200	–	–
O=C(OCc1cc(Cl)cc(Cl)c1)c1cccc([N+](=O)[O-])n1 [compound 33]	> 400	–	–
CC(=O)c1ccc(C(=O)OCc2cc(Cl)cc(Cl)c2)s1 [compound 34]	> 400	–	–
O=C(OCc1cc(Cl)cc(Cl)c1)c1csc([N+](=O)[O-])c1 [compound 36]	> 400	–	–
O=C(OCc1ccc(Cl)cc1Cl)c1ccc([N+](=O)[O-])s1 [compound 39]	3.1 (≈ 9.33 µM)	–	28
